In patent publication US10759803B2, “Asparagine endopeptidase (AEP) inhibitors for managing cancer and compositions related thereto” (priority 2014, dated 2020):

What was measured:
AEP [1] = assay: AEP activity in OGD-treated primary neurons; assay type: cell-based; conditions: 0.1 μM or 1.0 μM compound, 5 μM Cbz-Ala-Ala-Asn-AMC
Method: (§1) A. AEP activity, measured in primary neuronal cultures with 5 μM Cbz-Ala-Ala-Asn-AMC (x-axis denotes neurons were treated with 0.1 μM or 1.0 μM specified compound). B. Caspase activity, measured in primary neuronal cultures with 5 μM Ac-Asp-Glu-Val-Asp-AMC. C. Cathepsin activity, measured in primary neuronal cultures with 5 μM D-Val-Leu-Lys-AMC. D. Inhibition of APP cleavage. Lysates of primary cortical neurons pre-incubated with compounds for 30 min, underwent OGD for 4 hrs, were reperfused for 18 hrs (normoxia neurons remained at normoxic conditions). E. APP can be cleaved in a dose-dependent manner. Lysates of primary cortical neurons pre-incubated with compounds for 30 min, underwent OGD for 4 hrs, were reperfused for 18 hrs (normoxia neurons remained at normoxic conditions).
(§2) Depriving cells of oxygen and glucose is a cellular model that is employed to trigger acidosis in cultured cells. The efficacy of the compounds in a cellular model of oxygen-glucose deprivation (OGD) was determined in an effort to mimic the effects of stroke in primary cultured neurons. As a result of depriving neurons of oxygen and glucose-containing medium, AEP activity was doubled (FIG. 7A, ‘DMSO-Norm’ compared to ‘DMSO-OGD’), while Caspase-3 and Cathepsin activities remained relatively unchanged. […]

Caspase-3 = assay: Caspase activity in OGD-treated primary neurons; assay type: cell-based; conditions: 5 μM Ac-Asp-Glu-Val-Asp-AMC
Method: as §1, §2

AEP [2] = molecular target: T1, AEP (Homo sapiens, UniProt Q99538); assay: Inhibition kinetics assays (steady-state, Z-AAN-AMC); assay type: biochemical
T1 construct: tested with purified active AEP, IC50 values for the top 8 candidates were found
T1 sequence (Q99538 18-323 limits assumed): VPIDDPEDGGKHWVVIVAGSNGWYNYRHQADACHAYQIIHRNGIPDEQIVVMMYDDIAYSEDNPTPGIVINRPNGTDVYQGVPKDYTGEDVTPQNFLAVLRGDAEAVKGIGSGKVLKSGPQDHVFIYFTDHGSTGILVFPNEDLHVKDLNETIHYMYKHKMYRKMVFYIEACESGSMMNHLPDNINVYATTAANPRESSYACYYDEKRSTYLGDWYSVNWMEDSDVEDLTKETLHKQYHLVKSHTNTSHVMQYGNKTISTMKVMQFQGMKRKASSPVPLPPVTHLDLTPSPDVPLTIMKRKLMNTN
Method: KI values for each inhibitor were determined by global fits to the competitive inhibition equation. C. Time course inactivation assays were used to generate progress curves, depicting product formation as a function of time. […] E. Time course inactivation assays were used to generate progress curves, depicting product formation as a function of time. Pseudo first-order rate constants were obtained at each concentration of compound BB1. F. Re-plot of the pseudo first-order rate constants, kobs, vs. the concentration of compound BB1.
A. Michaelis-Menten plots displaying competitive inhibition of AEP. The inhibition constant, K1, was determined from the globally fit data. B. Double reciprocal Lineweaver-Burk plots also displaying competitive inhibition. C. […] DC. A plot of the corrected kobs values obtained from each curve in (B) versus the concentration of compound 38, which enabled the calculation of the second-order rate constant, kinact/KI to be determined to measure the potency of the inhibitor.
To determine the inhibition constants and the mechanism by which compound 38 inhibits AEP, the steady-state kinetic parameters for the hydrolysis of the peptide substrate, Z-AAN-AMC, were determined in the absence or presence of increasing concentrations of inhibitor. In these assays, specified concentrations of the inhibitor were pre-incubated with substrate for 10 min at 37° C., then 50 nM AEP was added to initiate the reaction, which was quenched after 10 min. […]
In the equations, Kii is the intercept Ki, and Kis is the slope Ki. The mode of the inhibition induced by the compounds on AEP was determined by the best fit of the data to equations 1-4. […]

Cathepsin = Cathepsin activity in OGD-treated primary neurons; assay type: cell-based; conditions: 5 μM D-Val-Leu-Lys-AMC
Method: as §1, §2

CYP2D6 = CYP2D6 (Homo sapiens, UniProt P10635); assay: CYP inhibition screening, CYP2D6; assay type: in vitro ADME
Chain of CYP2D6 (P10635 whole entry): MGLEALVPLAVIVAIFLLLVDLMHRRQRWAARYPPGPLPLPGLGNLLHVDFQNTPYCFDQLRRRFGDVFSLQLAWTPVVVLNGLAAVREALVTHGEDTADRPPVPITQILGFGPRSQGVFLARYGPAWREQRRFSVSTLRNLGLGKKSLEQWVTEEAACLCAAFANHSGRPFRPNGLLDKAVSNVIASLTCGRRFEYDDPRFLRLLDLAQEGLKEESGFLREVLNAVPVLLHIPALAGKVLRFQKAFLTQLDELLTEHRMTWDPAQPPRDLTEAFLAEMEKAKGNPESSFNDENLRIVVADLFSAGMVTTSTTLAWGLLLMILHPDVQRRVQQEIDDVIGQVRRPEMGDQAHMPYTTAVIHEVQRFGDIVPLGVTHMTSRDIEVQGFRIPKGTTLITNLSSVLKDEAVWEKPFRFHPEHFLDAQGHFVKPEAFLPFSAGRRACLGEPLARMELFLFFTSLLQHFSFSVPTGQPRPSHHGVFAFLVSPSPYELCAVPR

AEP [3] = molecular target: T1, AEP; assay: DTT / L-cysteine reversibility of AEP inhibition; assay type: biochemical; conditions: 10 mM DTT or L-cysteine added after 15 min
Method: AEP was reacted with specified inhibitor, after 15 min 10 mM DTT or L-cysteine was added to the reaction and the fluorescent signal was read for an additional 15 min. At the end of the second 15 min incubation, the percentage of product formed in the presence of each compound was determined in comparison to the DMSO control reaction.
Although it is not intended that embodiments of this disclosure be limited by any particular mechanism, to gain additional insight into the mechanism utilized by the inhibitors for abrogation of AEP activity, their reversibility in the presence of free thiols was determined. The addition of a strong reducing agent, such as DTT, or a weaker reducing agent, L-cysteine, to an inhibited reaction can be used to out-compete the inhibitory agent and restore catalytic activity to an enzyme with an active-site thiol residue. Here, a similar approach was used by adding a reducing agent, either DTT or L-cysteine, to a reaction, in which AEP had been incubated with a specified inhibitor, in an attempt to reverse the effects of the inhibitor. […] For compounds BB1 and 38, this increase in enzymatic activity may be due to the reduction of a disulfide linkage between the inhibitor and the enzyme, since these compounds contain thiols. Compound 10 contains a thiocyanate and may undergoes nucleophilic attack by the enzyme's active-site thiolate to form a thioimidate enzyme-inhibitor complex. Under acidic conditions, this complex is reducible by either a strong reducing agent, such as DTT, or the weaker L-cysteine.

| Structure (SMILES) | AEP activity in OGD neurons (AEP [1]) | decrease of Caspase-3 activity in OGD neurons (Caspase-3) | inhibition constants in words (AEP [2]; competitive inhibition) | decrease of Cathepsin activity in OGD neurons (Cathepsin) | CYP2D6 inhibition (CYP2D6; 3 μM) | CYP2D6 inhibition (CYP2D6; 10 μM) | Ki (AEP [2]; substrate Z-AAN-AMC, global fit, read-out: KI (competitive inhibition)) | AEP activity after addition of reducing agent (reversibility) (AEP [3]) |
| --- | --- | --- | --- | --- | --- | --- | --- | --- |
| Nc1ccc(N2CCOCC2)c2nonc12 [Compound 11] | marked dose-dependent decrease | not observed | nanomolar-range | not observed | 7.8% | 21.9% |  |  |
| Cn1c(=O)[nH]c(=O)c2c1nc(S)n2CC(O)COc1ccc(Cl)cc1 (stereo not shown) [Compound 38] |  |  |  |  | −5.4% | 0.9% | 0.105 ± 0.037 µM | regained a substantial amount of activity |
